Experimental data taken from the supplement of paper PMC11962398.

Experiments:
BI-2493 [1] = compound: T1, C[C@H]1CNCCN1c1nccc(-c2noc3c2CCC[C@@]32CCCc3sc(N)c(C#N)c32)n1 [BI-2493]; assay: 1 - AUC of viability dose-response curve (sensitivity) (fraction); higher = more sensitive; settings: 5 days
Procedure: (§1)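 PRISM pooled barcoded cancer cell line viability screen (Broad Institute) with BI-2493 at 8 doses in threefold dilutions from 0.00457 to 10 µmol/L, 5-day treatment; curves fitted per cell line. IC50 is undefined (placeholder) for resistant lines. AUC is capped at 1, and sensitivity is reported as 1 − AUC.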

BI-2493 [2] = compound: T1, BI-2493; settings: 5 days
Procedure: as §1

Row | Test System | 1 - AUC of viability dose-response curve (BI-2493 [1]) | IC50 of cell viability (BI-2493 [2]) [µM]
1 | NCIH82_LUNG | 0.0218 | 8.8
2 | NCIH196_LUNG | 0.0864 | 6.4
3 | NCIH226_LUNG | 0.134 | 5.37
4 | NCIH292_LUNG | 0.0643 | 5.7
5 | NCIH322_LUNG | 0.257 | 2.29
6 | NCIH358_LUNG | 0.281 | 2.33
7 | NCIH441_LUNG | 0.168 | 4.14
8 | NCIH446_LUNG | 0.216 | 4.06
9 | NCIH508_LARGE_INTESTINE | 0.088 | > 10
10 | NCIH520_LUNG | 0.0795 | > 10
11 | NCIH522_LUNG | 0.0303 | 9.9
12 | NCIH524_LUNG | 0.0829 | 5.44
13 | NCIH596_LUNG | 0.00278 | > 10
14 | NCIH647_LUNG | 0.171 | 5.65
15 | NCIH650_LUNG | 0.0133 | 9.27
16 | NCIH661_LUNG | 0.155 | 9.34
17 | NCIH727_LUNG | 0.129 | 6.54
18 | NCIH747_LARGE_INTESTINE | 0.384 | 0.323
19 | NCIH838_LUNG | 0.0686 | 7.55
20 | NCIH841_LUNG | 0.162 | 6.98
21 | NCIH1048_LUNG | 0.0696 | 6.78
22 | NCIH1092_LUNG | 0.131 | 3.99
23 | NCIH1299_LUNG | 0.0368 | 8.5
24 | NCIH1339_LUNG | 0.0455 | 6.82
25 | NCIH1341_LUNG | 0.146 | > 10
26 | NCIH1355_LUNG | 0.219 | 2.46
27 | NCIH1435_LUNG | 0.0748 | 4.95

Row | Test System | 1 - AUC of viability dose-response curve (BI-2493 [1]) | IC50 of cell viability (BI-2493 [2]) [µM]
28 | NCIH1437_LUNG | 0.153 | 4.73
29 | NCIH1563_LUNG | 0.00763 | 9.88
30 | NCIH1568_LUNG | 0.0444 | 7.78
31 | NCIH1573_LUNG | 0.0775 | 7.27
32 | NCIH1581_LUNG | 0.0823 | 8.08
33 | NCIH1623_LUNG | 0.0102 | 9.93
34 | NCIH1648_LUNG | 0.26 | 1.57
35 | NCIH1650_LUNG | 0.042 | 8.06
36 | NCIH1694_LUNG | 0.00415 | > 10
37 | NCIH1703_LUNG | 0.0509 | > 10
38 | NCIH1792_LUNG | 0.342 | 1.04
39 | NCIH1793_LUNG | 0.16 | 8.29
40 | NCIH1838_LUNG | 0.0993 | > 10
41 | NCIH1876_LUNG | 0.0823 | 3.89
42 | NCIH1915_LUNG | 0.0137 | 9.46
43 | NCIH1944_LUNG | 0.22 | 8.69
44 | NCIH1975_LUNG | 0.0712 | 6.8
45 | NCIH2004RT_SOFT_TISSUE | 0.0737 | > 10
46 | NCIH2009_LUNG | 0.149 | 5.8
47 | NCIH2023_LUNG | 0.208 | 2.57
48 | NCIH2030_LUNG | 0.206 | 3.34
49 | NCIH2077_LUNG | 0.182 | 8.95
50 | NCIH2087_LUNG | 0.104 | 3.99
51 | NCIH2110_LUNG | 0.0708 | 6.61
52 | NCIH2122_LUNG | 0.138 | 3.6
53 | NCIH2126_LUNG | 0.142 | 9.82
54 | NCIH2170_LUNG | 0.0861 | > 10

Row | Test System | 1 - AUC of viability dose-response curve (BI-2493 [1]) | IC50 of cell viability (BI-2493 [2]) [µM]
55 | NCIH2171_LUNG | 0.0377 | 9.88
56 | NCIH2172_LUNG | 0.0555 | 8.7
57 | NCIH2228_LUNG | 0.0876 | 7.89
58 | NCIH2347_LUNG | 0.138 | 4.63
59 | NCIH2444_LUNG | 0.102 | 6.69
60 | NCIH2452_PLEURA | 0.00394 | > 10
61 | NCIN87_STOMACH | 0.00691 | 9.6
62 | NCO2_HAEMATOPOIETIC_AND_LYMPHOID_TISSUE | 0.117 | 4.33
63 | NIHOVCAR3_OVARY | 0.103 | 8.37
64 | NOMO1_HAEMATOPOIETIC_AND_LYMPHOID_TISSUE | 0.38 | 0.331
65 | NOZ_LIVER | 0.0154 | 9.22
66 | NP2_CENTRAL_NERVOUS_SYSTEM | 0.085 | 9.05
67 | NP3_CENTRAL_NERVOUS_SYSTEM | 0.0412 | 8.21
68 | NP5_CENTRAL_NERVOUS_SYSTEM | 0.108 | 3.54
69 | NUDHL1_HAEMATOPOIETIC_AND_LYMPHOID_TISSUE | 0.441 | 0.306
70 | NUGC3_STOMACH | 0.236 | 2.68
71 | NZOV9_OVARY | 0.155 | 8.42
72 | OACM51_OESOPHAGUS | 0.0865 | 6.83
73 | OAW42_OVARY | 0.104 | 5.86
74 | OC314_OVARY | 0.113 | 5.96
75 | OC316_OVARY | 0.113 | 5.73
76 | OCIAML2_HAEMATOPOIETIC_AND_LYMPHOID_TISSUE | 0.209 | 3
77 | OCIAML3_HAEMATOPOIETIC_AND_LYMPHOID_TISSUE | 0.23 | 2.15
78 | OCIC4P_OVARY | 0.115 | 6.47
79 | OCIC5X_OVARY | 0.0098 | 9.57
